Reference: ChEMBL document CHEMBL3352275, “2-Aminothiazole derivatives as antimycobacterial agents: Synthesis, characterization, in vitro and in silico studies” (Eur J Med Chem, 2014)
Converted amounts (≈) assume the structure as drawn.

Target: not listed separately
Experiment: Binding affinity to Mycobacterium tuberculosis beta-Ketoacyl-ACP Synthase
Conditions: not given

Compared with `Fc1ccc(Nc2nc(-c3ccc(Br)cc3)cs2)cc1`, `Brc1ccc(Nc2nc(-c3ccncc3)cs2)cc1` is 2.9-fold lower in Ki: 1280 nM for the first, 440 nM for the second.

With `Cc1cccc(Nc2nc(-c3ccncc3)cs2)n1` the Ki was 30200 nM.

Tested on: Mycobacterium tuberculosis
Experiment: Antimycobacterial activity against Mycobacterium tuberculosis H37Rv after 5 days by resazurin-based microdilution method
Format: functional
Conditions: 120 h

First: Oc1ccc(Nc2nc(-c3ccc(Cl)cc3)cs2)cc1
Second: Fc1ccc(Nc2nc(-c3ccc(Cl)cc3)cs2)cc1
The MIC of the first is 16-fold higher: 200 µM (≈ 60.6 µg/mL) for the first, 12.5 µM (≈ 3.81 µg/mL) for the second.

First: COc1ccc(-c2csc(Nc3ccc(O)cc3)n2)cc1
Second: COc1ccc(-c2csc(Nc3ccc(F)cc3)n2)cc1
The MIC of the first is higher: greater than 200 µM for the first, 12.5 µM (≈ 3.75 µg/mL) for the second.

Going from `COc1ccc(-c2csc(Nc3cccc(C)n3)n2)cc1` to `Cc1cccc(Nc2nc(-c3ccncc3)cs2)n1`, the MIC falls from greater than 200 µM to 100 µM (≈ 26.8 µg/mL).

`Fc1ccc(Nc2nc(-c3cccnc3)cs2)cc1` and `Oc1ccc(Nc2nc(-c3cccnc3)cs2)cc1` cannot be ordered by MIC: greater than 200 µM for the first, greater than 200 µM for the second.

Compared with `Cc1cccnc1Nc1nc(-c2ccc(Br)cc2)c(Br)s1`, `Cc1cccnc1Nc1nc(-c2ccc(Br)cc2)c(C)s1` is lower in MIC: greater than 200 µM for the first, 100 µM (≈ 36 µg/mL) for the second.

`Fc1ccc(Nc2nc(-c3ccc(Br)cc3)cs2)cc1` and `Fc1ccc(Nc2nc(-c3ccncc3)cs2)cc1` are the same in MIC: 25 µM (≈ 8.73 µg/mL) for the first, 25 µM (≈ 6.78 µg/mL) for the second.

First: Cc1sc(Nc2ccc(F)cc2)nc1-c1ccc(Br)cc1
Second: Fc1ccc(Nc2nc(-c3ccc(Br)cc3)c(Br)s2)cc1
The MIC of the first is 4-fold higher: 100 µM (≈ 36.3 µg/mL) for the first, 25 µM (≈ 10.7 µg/mL) for the second.

First: Fc1ccc(Nc2nc(-c3ccc4ccccc4c3)cs2)cc1
Second: O=[N+]([O-])c1cc(Cl)ccc1Nc1nc(-c2ccc3ccccc3c2)cs1
The MIC of the first is lower: 100 µM (≈ 32 µg/mL) for the first, greater than 200 µM for the second.

First: COc1ccc(-c2csc(Nc3ccc(Cl)cc3[N+](=O)[O-])n2)cc1
Second: O=[N+]([O-])c1cc(Cl)ccc1Nc1nc(-c2ccncc2)cs1
The MIC of the first is lower: 12.5 µM (≈ 4.52 µg/mL) for the first, greater than 200 µM for the second.

`O=[N+]([O-])c1cc(Cl)ccc1Nc1nc(-c2ccccn2)cs1` and `O=[N+]([O-])c1cc(Cl)ccc1Nc1nc(-c2cccnc2)cs1` cannot be ordered by MIC: greater than 200 µM for the first, greater than 200 µM for the second.

`Brc1ccc(-c2csc(Nc3ccccn3)n2)cc1` and `Cc1sc(Nc2ccccn2)nc1-c1ccc(Br)cc1` cannot be ordered by MIC: greater than 200 µM for the first, greater than 200 µM for the second.

`Brc1ccc(-c2nc(Nc3ccccn3)sc2Br)cc1` and `Cc1cccc(Nc2nc(-c3ccc(Br)cc3)c(C)s2)n1` cannot be ordered by MIC: greater than 200 µM for the first, greater than 200 µM for the second.

`Cc1cccnc1Nc1nc(-c2ccc(Cl)c(Cl)c2)cs1` and `Cc1cccc(Nc2nc(-c3ccc(Cl)c(Cl)c3)cs2)n1` cannot be ordered by MIC: greater than 200 µM for the first, greater than 200 µM for the second.

`Cc1cccc(Nc2nc(-c3cccc4ccccc34)cs2)n1` and `c1ccc(Nc2nc(-c3cccnc3)cs2)nc1` cannot be ordered by MIC: greater than 200 µM for the first, greater than 200 µM for the second.

`Cc1cccnc1Nc1nc(-c2cccnc2)cs1` and `Cc1cccnc1Nc1nc(-c2ccncc2)cs1` cannot be ordered by MIC: greater than 200 µM for the first, greater than 200 µM for the second.

`Oc1ccc(Nc2nc(-c3ccncc3)cs2)cc1` gave an MIC greater than 200 µM.
